14 compounds from PubChem BioAssay (NCI) can be followed below.

Test systems include HOP-92 NSCLC; LOX IMVI melanoma; MOLT-4 leukemia; NCI-H23 lung; NCI-H460 lung; NCI-H522 lung; OVCAR-3 ovarian; SK-MEL-5 melanoma; SK-OV-3 ovarian; U251 CNS.
Test in all cases: NCI anticancer screen, dose series, 48 h

Where “and” joins values, the source holds several entries; their conditions need not be identical. Equal values may be shown once.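 Tested at 5 concentrations; 48 h exposure; 96-well plates; endpoints linearly interpolated, else capped at highest concentration. The concentration for 50% growth inhibition is given as GI50. Definition used: TGI = concentration required for complete inhibition of growth.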

In the case of `CC(C)=CCC/C(C)=C/CC/C(C)=C/[C@@H]1[C@@H](CO)[C@]1(C)CC/C=C(\C)CCC=C(C)C`, the TGI in the assay on HOP-92 NSCLC was 38.2 µM; in the assay with LOX IMVI melanoma, 23.8 µM; with MOLT-4 leukemia, above 100 µM; with NCI-H23 lung, above 100 µM; in the assay with NCI-H460 lung, above 100 µM; in the assay with NCI-H522 lung, 32.7 µM. Also, the TGI in the assay on OVCAR-3 ovarian, in the assay on SK-MEL-5 melanoma, in the assay on SK-OV-3 ovarian and in the assay on U251 CNS was above 100 µM each time.
For the compound `CCCCCCOC(=O)C(N)Cc1ccc(OC)cc1` (configuration not stated), the TGI in the assay on HOP-92 NSCLC, in the assay with LOX IMVI melanoma, in the assay on MOLT-4 leukemia, in the assay with NCI-H23 lung, with NCI-H460 lung and in the assay on NCI-H522 lung was above 100 µM throughout. In addition, the TGI in the assay on OVCAR-3 ovarian, in the assay with SK-MEL-5 melanoma, with SK-OV-3 ovarian and in the assay on U251 CNS was above 100 µM throughout.
On to `CC1=NN(c2cccc(Cl)c2)C(=N/c2nc3ccccc3s2)/C1=C\C=C\c1ccccc1`, for which the TGI with LOX IMVI melanoma was above 100 µM; with MOLT-4 leukemia, 3.48 µM; in the assay on NCI-H23 lung, above 100 µM; in the assay with NCI-H460 lung it was above 100 µM; in the assay on NCI-H522 lung it was 92.3 µM; in the assay on OVCAR-3 ovarian it was 78.9 µM. Moreover, the TGI in the assay on SK-MEL-5 melanoma is 59.2 µM; in the assay on SK-OV-3 ovarian, above 100 µM.
For `COC1OC(C(=O)CP(=O)(OC)OC)C(OCc2ccccc2)C(OCc2ccccc2)C1OCc1ccccc1` (configuration not stated), the TGI was 37.1 µM and 34.7 µM in the assay with HOP-92 NSCLC; 33.1 µM and 32.6 µM with LOX IMVI melanoma; 32.7 µM and 50.3 µM in the assay on MOLT-4 leukemia; 30.3 µM and 32.9 µM in the assay with NCI-H23 lung; 31.1 µM and 29.4 µM in the assay with NCI-H460 lung; 29.5 µM and 32.2 µM in the assay with NCI-H522 lung. Also, the TGI was 30.3 µM and 28.7 µM in the assay on OVCAR-3 ovarian; 28.6 µM and 28.7 µM with SK-MEL-5 melanoma; 32.7 µM and 32.6 µM in the assay on SK-OV-3 ovarian; 29 µM and 30.3 µM in the assay with U251 CNS.
Turning to `Cc1cc(N2CCOCC2)nc(N(CCCNc2ccnc3cc(Cl)ccc23)Cc2ccc3c(c2)OCO3)n1`, the GI50 in the assay on HOP-92 NSCLC was 1.56 µM; with MOLT-4 leukemia it was 0.598 µM; in the assay on NCI-H460 lung it was 1.45 µM; with OVCAR-3 ovarian, 0.253 µM; with SK-MEL-5 melanoma, 1.54 µM; with SK-OV-3 ovarian it was 2.29 µM. Also, the GI50 in the assay on U251 CNS is 0.936 µM. In addition, the TGI in the assay with HOP-92 NSCLC came to 3.98 µM; in the assay with MOLT-4 leukemia, 2.97 µM; with NCI-H460 lung it was 2.99 µM; with OVCAR-3 ovarian, 0.738 µM; in the assay on SK-MEL-5 melanoma, 2.88 µM; in the assay with SK-OV-3 ovarian it was 4.54 µM. This compound also registered a TGI with U251 CNS of 2.12 µM.
For `CCOc1cc(NC(C)=O)ccc1C(=O)N/N=C/c1ccco1`, the TGI in the assay with HOP-92 NSCLC is above 100 µM; in the assay with LOX IMVI melanoma, above 100 µM; with MOLT-4 leukemia, 74.6 µM; in the assay on NCI-H23 lung it was above 100 µM; in the assay on NCI-H460 lung, above 100 µM; in the assay with NCI-H522 lung, above 100 µM. The TGI in the assay with OVCAR-3 ovarian, with SK-MEL-5 melanoma and with SK-OV-3 ovarian was above 100 µM each time.
Regarding `COC(=O)c1c(O)ccc2c1c1c(n2Cc2ccccn2)C(=O)c2ccccc2C1`, the TGI in the assay with LOX IMVI melanoma, in the assay on MOLT-4 leukemia, in the assay on NCI-H23 lung, in the assay on NCI-H460 lung, with OVCAR-3 ovarian and in the assay on SK-MEL-5 melanoma was above 100 µM each time. In addition, the TGI in the assay with SK-OV-3 ovarian and in the assay on U251 CNS was above 100 µM each time.
`NC(CCc1ccccc1)(C(=O)O)c1ccccc1` (configuration not stated): the TGI in the assay on HOP-92 NSCLC, in the assay on LOX IMVI melanoma, in the assay on MOLT-4 leukemia, with NCI-H23 lung, in the assay with NCI-H460 lung and in the assay with NCI-H522 lung was above 100 µM in each case. Besides, the TGI in the assay with OVCAR-3 ovarian, in the assay with SK-MEL-5 melanoma and in the assay on U251 CNS was above 100 µM each time.
Take `COc1cc(S(=O)(=O)N/N=C/C=C/c2ccccc2)c(OC)cc1NC(C)=O`: the TGI was above 100 µM in the assay on HOP-92 NSCLC; above 100 µM in the assay on LOX IMVI melanoma; above 100 µM in the assay on NCI-H23 lung; above 100 µM with NCI-H522 lung; above 100 µM with OVCAR-3 ovarian; 33.3 µM in the assay on SK-MEL-5 melanoma. In the assay on SK-OV-3 ovarian, this compound came in with a TGI above 100 µM.
In the case of `CC(C)(C)OC(=O)N1C(C2=COc3ccccc3O2)=COc2cccnc21`, the TGI in the assay with HOP-92 NSCLC came out at 3.9 µM; in the assay with LOX IMVI melanoma, 3.36 µM; in the assay on MOLT-4 leukemia it was 7 µM; in the assay with NCI-H23 lung, 3.25 µM; in the assay with NCI-H460 lung, 3.67 µM; in the assay on NCI-H522 lung, 3.49 µM. Also, the TGI came out at 3.31 µM in the assay on OVCAR-3 ovarian, 3.17 µM in the assay on SK-MEL-5 melanoma, 3.99 µM in the assay with SK-OV-3 ovarian and 3.13 µM with U251 CNS.
As to `CN(C)C/C=C(/c1ccc(Br)cc1)c1cccnc1`, the TGI with HOP-92 NSCLC, with MOLT-4 leukemia, in the assay with NCI-H23 lung, in the assay on NCI-H460 lung, with NCI-H522 lung and in the assay with OVCAR-3 ovarian was above 100 µM in each case. The results for the TGI in the assay on SK-MEL-5 melanoma, in the assay with SK-OV-3 ovarian and in the assay on U251 CNS were 45.5 µM, above 100 µM and above 100 µM, respectively.
As for `COc1cccc(/C=N/[N-]C(N)=O)c1[O-].[Cu+2].[OH3+].c1cnc2c(c1)ccc1cccnc12`, the TGI was 18.2 µM with HOP-92 NSCLC; 48.2 µM with LOX IMVI melanoma; above 100 µM in the assay on MOLT-4 leukemia; 15.8 µM with NCI-H23 lung; 79.9 µM with NCI-H460 lung; 36.1 µM in the assay with OVCAR-3 ovarian. Besides, the TGI with SK-MEL-5 melanoma amounted to 16.1 µM; with SK-OV-3 ovarian, 25.2 µM; in the assay on U251 CNS, 17.7 µM.
As to `O=S1c2ccccc2N=C(c2ccc3ccccc3c2)CC1c1ccccc1` (configuration not stated), the TGI in the assay on HOP-92 NSCLC was above 100 µM; with LOX IMVI melanoma, 36.5 µM; with MOLT-4 leukemia, above 100 µM; in the assay on NCI-H23 lung, 39 µM; in the assay on NCI-H460 lung it was 41 µM; with NCI-H522 lung it was 34.9 µM. The TGI with SK-MEL-5 melanoma is above 100 µM; with SK-OV-3 ovarian it was 92.6 µM; in the assay with U251 CNS, 32.6 µM.
On to `CCOC(=O)C(C)OC(=O)c1ccc(C)cc1` (configuration not stated), for which the TGI with HOP-92 NSCLC, in the assay with LOX IMVI melanoma, in the assay on MOLT-4 leukemia, with NCI-H23 lung, in the assay on NCI-H460 lung and with NCI-H522 lung was above 100 µM in each case. Besides, the TGI with OVCAR-3 ovarian, in the assay on SK-MEL-5 melanoma, in the assay on SK-OV-3 ovarian and with U251 CNS was above 100 µM in each case.
